Usually EC50 stands for the midpoint of the concentration-response curve. Broadly, the IC50 is the concentration at which inhibition is half-maximal. Higher therefore signals weaker potency.

A value given as a limit tells only on which side of the number the result lay.

One test relates to primary human T-cells. Nature of the test: IL2 secretion measurements (24 h, CD3-stimulated T-cells, PBS counter screen). In kind it is cell-based. Conditions: for Emax IL2 (% activation): CD3 condition, normalised to DMSO (neutral) and 20 μM reference compound A1 = 100%; for EC50: Homo sapiens, T-cell, CD3-stimulated primary human T-cells, IL2 secretion, fitted sigmoidal curve, read-out: Tcell IL2 CD3 EC50. Put shortly: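 Expanded primary human T-cells (100k/well) were plated on anti-CD3-coated or PBS-only plates with compound in a 5–6 point dose response (top 20 or 10 μM final, 3.333-fold, 0.2% DMSO). IL-2 in 24 h supernatants was quantified by ProQuantum immunoassay or ELISA. Values were normalized to DMSO and 20 μM reference compound A1 (100%), giving EC50 and Emax.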
(The purpose of a counterscreen is to sort out artefacts and off-target activity.)

The target of test [1] is T1, DGKζ (hDGKzeta(1-928)-N-His) (Homo sapiens, UniProt Q13574).
T1 construct: hDGKzeta(1-928)-N-His; His (N); made in house; host or cells: Sf21 insect cells (baculovirus)
T1 sequence (Q13574 whole entry): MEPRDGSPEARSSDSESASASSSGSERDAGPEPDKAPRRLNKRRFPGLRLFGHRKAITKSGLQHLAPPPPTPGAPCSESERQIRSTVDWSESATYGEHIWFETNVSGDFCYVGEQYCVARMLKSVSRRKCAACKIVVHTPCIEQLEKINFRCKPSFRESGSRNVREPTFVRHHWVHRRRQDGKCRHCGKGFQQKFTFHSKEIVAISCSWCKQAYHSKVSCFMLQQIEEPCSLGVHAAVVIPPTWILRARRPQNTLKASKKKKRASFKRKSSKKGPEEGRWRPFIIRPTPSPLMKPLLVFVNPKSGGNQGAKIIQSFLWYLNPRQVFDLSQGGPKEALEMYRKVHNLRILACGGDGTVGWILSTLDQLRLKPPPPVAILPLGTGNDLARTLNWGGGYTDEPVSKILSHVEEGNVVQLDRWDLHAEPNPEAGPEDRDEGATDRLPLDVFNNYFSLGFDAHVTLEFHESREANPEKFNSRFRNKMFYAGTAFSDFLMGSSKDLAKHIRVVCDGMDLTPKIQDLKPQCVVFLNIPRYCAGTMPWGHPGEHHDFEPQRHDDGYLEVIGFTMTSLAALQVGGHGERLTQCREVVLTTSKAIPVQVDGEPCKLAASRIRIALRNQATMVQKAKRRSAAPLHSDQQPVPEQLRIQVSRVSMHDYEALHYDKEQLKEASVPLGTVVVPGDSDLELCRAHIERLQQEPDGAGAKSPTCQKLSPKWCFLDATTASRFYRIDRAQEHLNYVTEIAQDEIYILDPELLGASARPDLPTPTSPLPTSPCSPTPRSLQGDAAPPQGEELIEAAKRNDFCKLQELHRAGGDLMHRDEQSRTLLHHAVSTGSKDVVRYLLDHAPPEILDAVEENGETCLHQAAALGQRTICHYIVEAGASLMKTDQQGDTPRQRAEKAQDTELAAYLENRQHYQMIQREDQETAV
In words: In vitro DGK inhibition assay, DGKzeta ADP Glo (in house). It counts as biochemical. The following applies: 2 nM DGKζ, 50 μM ATP, 125 uM DLG in liposomes, 1 hour reaction. In short, it runs like this:
(§1)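 Full-length His-tagged human DGKα (4 nM) or DGKζ (2 nM), expressed in Sf21 cells, phosphorylated 125 µM DLG in PS/PC liposomes with ATP at 25 µM (α) or 50 µM (ζ) for 1 h. ADP was measured by ADP-Glo luminescence. Compounds were tested as 11-point 1:3 series in 2% DMSO.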
For orientation: ADP-Glo turns the ADP formed in a reaction into a luminescent signal.

In test [2] the target is T2, DGKα (hDGKalpha(1-735)-N-His) (Homo sapiens, UniProt P23743).
T2 construct: hDGKalpha(1-735)-N-His; His (N); made in house; host or cells: Sf21 insect cells (baculovirus)
T2 sequence (P23743 whole entry): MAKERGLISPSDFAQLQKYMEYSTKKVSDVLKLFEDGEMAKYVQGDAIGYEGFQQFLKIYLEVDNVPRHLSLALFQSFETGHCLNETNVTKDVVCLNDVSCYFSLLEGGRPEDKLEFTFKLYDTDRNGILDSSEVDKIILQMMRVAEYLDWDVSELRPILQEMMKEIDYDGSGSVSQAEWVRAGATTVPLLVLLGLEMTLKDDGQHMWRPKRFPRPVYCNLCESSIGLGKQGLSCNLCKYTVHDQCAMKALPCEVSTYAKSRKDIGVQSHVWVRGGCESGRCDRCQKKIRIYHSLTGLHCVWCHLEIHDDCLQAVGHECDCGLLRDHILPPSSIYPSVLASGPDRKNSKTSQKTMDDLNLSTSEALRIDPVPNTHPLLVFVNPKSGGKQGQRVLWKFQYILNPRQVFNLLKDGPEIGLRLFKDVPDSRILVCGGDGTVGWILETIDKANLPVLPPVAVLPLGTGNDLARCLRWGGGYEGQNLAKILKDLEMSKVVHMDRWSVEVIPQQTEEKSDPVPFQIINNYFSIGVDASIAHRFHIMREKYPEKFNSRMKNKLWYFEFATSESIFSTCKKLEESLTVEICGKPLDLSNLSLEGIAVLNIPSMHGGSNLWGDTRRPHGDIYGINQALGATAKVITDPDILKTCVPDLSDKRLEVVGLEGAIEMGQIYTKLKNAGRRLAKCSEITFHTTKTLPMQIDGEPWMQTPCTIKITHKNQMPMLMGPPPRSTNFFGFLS
In words: In vitro DGK inhibition assay, DGKalpha ADP Glo (in house). In kind it is biochemical. Conditions: 4 nM DGKα, 25 μM ATP, 125 uM DLG in liposomes, 1 hour reaction. In short, it runs like this: as §1

As to `CC1(c2nnc(-c3ccc4c(c3)N(Cc3ccc(-c5ccc(C(F)(F)F)cc5)cc3)C(=O)[C@@H](N)CS4(=O)=O)o2)CCO1` (stereo partly drawn) [Example 48, (3R)-3-amino-7-[5-(2-methyloxetan-2-yl)-1,3,4-oxadiazol-2-yl]-1,1-dioxo-5-[[4-[4-(trifluoromethyl)phenyl]phenyl]methyl]-2,3-dihydro-1lambda6,5-benzothiazepin-4-one], in the test with primary human T-cells, the “Emax IL2 (% activation)” value worked out at 114 % activation and the concentration for a half-maximal effect (EC50) came to 984 nM. In test [1], this compound returned an IC50 of 1590 nM. For the same compound, in test [2], the IC50 is more than 62.5 µM.
`N[C@H]1CS(=O)(=O)c2cc(F)c(-c3noc(N4CCCC4)n3)cc2N(Cc2ccc(-c3noc(C(F)(F)F)n3)nc2)C1=O` [Example 15, (3R)-3-amino-8-fluoro-1,1-dioxo-7-(5-pyrrolidin-1-yl-1,2,4-oxadiazol-3-yl)-5-[[6-[5-(trifluoromethyl)-1,2,4-oxadiazol-3-yl]-3-pyridyl]methyl]-2,3-dihydro-1λ^6,5-benzothiazepin-4-one]: the “Emax IL2 (% activation)” value in the test with primary human T-cells stood at 39 % activation. For the same compound, the EC50 with primary human T-cells was more than 10000 nM. The IC50 was determined as 466 nM in test [1] and 40.3 µM in test [2].
On to `N[C@H]1CS(=O)(=O)c2ccc(-c3nnc(N4CCOC(F)(F)C4)o3)cc2N(Cc2ccc(-c3noc(C(F)(F)F)n3)cc2)C1=O` [Example 78, (3R)-3-amino-7-[5-(2,2-difluoromorpholin-4-yl)-1,3,4-oxadiazol-2-yl]-1,1-dioxo-5-[[4-[5-(trifluoromethyl)-1,2,4-oxadiazol-3-yl]phenyl]methyl]-2,3-dihydro-1λ^6,5-benzothiazepin-4-one], for which the “Emax IL2 (% activation)” value in the test on primary human T-cells was 216 % activation. Besides, in the test on primary human T-cells, the EC50 came to 2340 nM. Moreover, the results for the IC50 in test [1] and in test [2] were 2530 nM and 43.3 µM, respectively.
In the same order, the values of `CC(C)(C)c1nnc(-c2ccc3c(c2)N(Cc2ccc(-n4ccc(C(F)(F)F)n4)cc2)C(=O)[C@@H](N)CS3(=O)=O)o1` [Example 27] are 160 % activation, 476 nM, 758 nM and 2.95 µM.
As to `N[C@H]1CS(=O)(=O)c2ccc(-c3nnc(N4CCOC(C(F)(F)F)C4)o3)cc2N(Cc2ccc(-c3noc(C(F)(F)F)n3)cc2)C1=O` (stereo partly drawn) [Example 74, (3R)-3-amino-1,1-dioxo-7-[5-[2-(trifluoromethyl)morpholin-4-yl]-1,3,4-oxadiazol-2-yl]-5-[[4-[5-(trifluoromethyl)-1,2,4-oxadiazol-3-yl]phenyl]methyl]-2,3-dihydro-1λ^6,5-benzothiazepin-4-one], the “Emax IL2 (% activation)” value in the test on primary human T-cells is 206 % activation. In addition, the EC50 in the test on primary human T-cells turned out to be 1460 nM. The IC50 in test [1] turned out to be 770 nM; in test [2] it was 3.66 µM.
Consider `Cn1ccc(-c2ccc(CN3C(=O)[C@@H](N)CS(=O)(=O)c4ccc(-c5nnc(C(C)(C)C)o5)cc43)cc2)n1` [Example 21], for which the “Emax IL2 (% activation)” value in the test on primary human T-cells was 53 % activation. Further, the EC50 in the test on primary human T-cells came to 8010 nM. Also, the concentration for half-maximal inhibition (IC50) in test [1] was determined as 2310 nM; in test [2], 16.8 µM.
As for `CC(C)(C)c1nc(-c2cc3c(cc2F)S(=O)(=O)C[C@H](N)C(=O)N3Cc2ccc(-c3ccc(CO)cc3)nc2)no1` [Example 7, (3R)-3-amino-7-(5-tert-butyl-1,2,4-oxadiazol-3-yl)-8-fluoro-5-[[6-[4-(hydroxymethyl)phenyl]-3-pyridyl]methyl]-1,1-dioxo-2,3-dihydro-1λ^6,5-benzothiazepin-4-one], in the test on primary human T-cells, the “Emax IL2 (% activation)” value was found to be 38 % activation and the EC50 is more than 10000 nM. The same compound yielded an IC50 in test [1] of 1400 nM. The IC50 in test [2] is more than 62.5 µM.

The values are drawn from US20260138976A1 (Hoffmann-La Roche Inc., priority 2022, published 2026).
